Experimental data from PubChem BioAssay (NCI).
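All cell lines were grown in 96-well plates and treated with compound for 48 hours. GI50 = concentration required for 50% inhibition of growth. TGI: total growth inhibition.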

Key:
Experiment in all cases: NCI tumour cell line growth inhibition, 48 h
[1] = test system: 786-0 renal
[2] = test system: A498 renal
[3] = test system: A549 NSCLC
[4] = test system: ACHN renal
[5] = test system: BT-549 breast
[6] = test system: CAKI-1 renal
[7] = test system: CCRF-CEM leukemia
[8] = test system: COLO 205 colon
[9] = test system: DU-145 prostate
[10] = test system: EKVX NSCLC
[11] = test system: HCC-2998 colon
[12] = test system: HCT-116 colon
[13] = test system: HCT-15 colon
[14] = test system: HL-60(TB) leukemia
[15] = test system: HOP-62 NSCLC
[16] = test system: HOP-92 NSCLC
[17] = test system: HS 578T breast
[18] = test system: HT29 colon
[19] = test system: IGROV1 ovarian
[20] = test system: K-562 leukemia
[21] = test system: KM12 colon
[22] = test system: LOX IMVI melanoma
[23] = test system: M14 melanoma
[24] = test system: MALME-3M melanoma
[25] = test system: MCF7 breast
[26] = test system: MDA-MB-231 breast
[27] = test system: MDA-MB-435
[28] = test system: MOLT-4 leukemia
[29] = test system: NCI-H226 lung
[30] = test system: NCI-H23 lung
[31] = test system: NCI-H460 lung
[32] = test system: NCI-H522 lung
[33] = test system: NCI/ADR-RES ovarian
[34] = test system: OVCAR-3 ovarian
[35] = test system: OVCAR-4 ovarian
[36] = test system: OVCAR-5 ovarian
[37] = test system: OVCAR-8 ovarian
[38] = test system: PC-3 prostate
[39] = test system: RPMI-8226 leukemia
[40] = test system: RXF 393 renal
[41] = test system: SF-268 CNS
[42] = test system: SF-295 CNS
[43] = test system: SF-539 CNS
[44] = test system: SK-MEL-2 melanoma
[45] = test system: SK-MEL-28 melanoma
[46] = test system: SK-MEL-5 melanoma
[47] = test system: SK-OV-3 ovarian
[48] = test system: SN12C renal
[49] = test system: SNB-19 CNS
[50] = test system: SNB-75 CNS
[51] = test system: SR leukemia
[52] = test system: SW-620 colon
[53] = test system: T-47D breast
[54] = test system: TK-10 renal
[55] = test system: U251 CNS
[56] = test system: UACC-257 melanoma
[57] = test system: UACC-62 melanoma
[58] = test system: UO-31 renal

C=C1C(=O)OC2CC3(C)OC3C3OC3C3=CC(OC3=O)C12 (stereo unspecified)
GI50 [1]: 17.2 µM | TGI [1]: 33.8 µM | GI50 [2]: 15.8 µM | TGI [2]: 30.5 µM | GI50 [3]: 21.3 µM | TGI [3]: 46.8 µM | GI50 [4]: 1.81 µM | TGI [4]: 3.35 µM | GI50 [5]: 8.33 µM | TGI [5]: 21.5 µM | GI50 [6]: 1.48 µM | TGI [6]: 3 µM | GI50 [7]: 1.05 µM | TGI [7]: 3.2 µM | GI50 [8]: 0.539 µM | TGI [8]: 1.25 µM | GI50 [9]: 16.6 µM | TGI [9]: 34.3 µM | GI50 [10]: 19 µM | TGI [10]: 41.9 µM | GI50 [11]: 17.4 µM | TGI [11]: 33.9 µM | GI50 [12]: 1.67 µM | TGI [12]: 3.15 µM | GI50 [13]: 2.4 µM | TGI [13]: 6.45 µM | GI50 [14]: 2.13 µM | TGI [14]: 4.83 µM | GI50 [15]: 15.2 µM | TGI [15]: 41.5 µM | GI50 [16]: 2.01 µM | TGI [16]: 4.77 µM | GI50 [17]: 19.3 µM | TGI [17]: 68.7 µM | GI50 [18]: 3.21 µM | TGI [18]: 10.8 µM | GI50 [19]: 21.2 µM | TGI [19]: 40.7 µM | GI50 [20]: 2.54 µM | TGI [20]: 6.85 µM | GI50 [21]: 18.7 µM | TGI [21]: 37.7 µM | GI50 [22]: 4.18 µM | TGI [22]: 12.1 µM | GI50 [23]: 8.75 µM | TGI [23]: 24.2 µM | GI50 [24]: 2.12 µM | TGI [24]: 4.19 µM | GI50 [25]: 6.05 µM | TGI [25]: 27.6 µM | GI50 [26]: 8.33 µM | TGI [26]: 22.7 µM | GI50 [27]: 9.57 µM | TGI [27]: 29.3 µM | GI50 [28]: 3.25 µM | TGI [28]: 9.75 µM | GI50 [29]: 8.82 µM | TGI [29]: 28.5 µM | GI50 [30]: 13.4 µM | TGI [30]: 32.6 µM | GI50 [31]: 19.9 µM | TGI [31]: 41.3 µM | GI50 [32]: 0.299 µM | TGI [32]: 0.904 µM | GI50 [33]: 27.2 µM | TGI [33]: 69.3 µM | GI50 [34]: 2.03 µM | TGI [34]: 3.61 µM | GI50 [35]: 2.14 µM | TGI [35]: 4.86 µM | GI50 [36]: 9.05 µM | TGI [36]: 25.7 µM | GI50 [37]: 3.32 µM | TGI [37]: 19.3 µM | GI50 [38]: 15.9 µM | TGI [38]: 32.9 µM | GI50 [39]: 7.34 µM | TGI [39]: 33.2 µM | GI50 [40]: 1.81 µM | TGI [40]: 3.66 µM | GI50 [41]: 19 µM | TGI [41]: 38 µM | GI50 [42]: 37.4 µM | TGI [42]: > 100 µM | GI50 [43]: 4.43 µM | TGI [43]: 16.7 µM | GI50 [44]: 15.4 µM | TGI [44]: 36.4 µM | GI50 [45]: 5.75 µM | TGI [45]: 12.5 µM | GI50 [46]: 14.9 µM | TGI [46]: 30.3 µM | GI50 [47]: 25.4 µM | TGI [47]: > 57 µM | GI50 [48]: 11.3 µM | TGI [48]: 25.2 µM | GI50 [49]: > 100 µM | TGI [49]: > 100 µM | GI50 [50]: 14.5 µM | TGI [50]: 38.6 µM | GI50 [51]: 2.82 µM | TGI [51]: 7.81 µM | GI50 [52]: 1.35 µM | TGI [52]: 3.04 µM | GI50 [53]: 1.17 µM | TGI [53]: 4.45 µM | GI50 [54]: 1.91 µM | TGI [54]: 3.39 µM | GI50 [55]: 17.7 µM | TGI [55]: 35 µM | GI50 [56]: 1.92 µM | TGI [56]: 4.03 µM | GI50 [57]: 9.11 µM | TGI [57]: 22.3 µM | GI50 [58]: 2.84 µM | TGI [58]: 7.54 µM
